Measured values published in patent US20220096431A1, “PHARMACEUTICAL COMPOSITION AND METHOD FOR PREVENTING, TREATING AND DIAGNOSING A NEURODEGENERATIVE DISEASE” (BUDDHIST TZU CHI MEDICAL FOUNDATION, priority 2020, published 2022).
“Also recorded” adds a separate entry of the source.

Tests used:
[1] = system: SH-SY5Y; assay: MTT cell viability of SH-SY5Y cells; conditions: n-Bp 100 μM, vitamin C 200 μM
Source text: Then, the cell viability is detected by a cell survival test using (3-(4,5-dimethylthiazol-2-yl)-2,5-diphenyltetrazolium bromide (MTT) assay.

[2] = system: Ts-21 iPSCs (neurons with Alzheimer's disease symptoms); assay: Gene microarray analysis of n-BP-treated Ts-21 iPSCs; type: cell-based, human
Source text: To examine the mechanism by which n-BP regulated miR expression, n-BP-treated Ts-21 iPSCs were subjected to gene microarray analysis. […] The 4 predicted binding energy between lnc-CYP3A43-2 and miR-29b-2-5p are the lowest (−11.49 Kcal/mol) among these four lncRNA and the predicted target sequence between lnc-CYP3A43-2 and miR-29b-2-5p are shown in FIG. 6G.
For example, ATP6V0D2 and IST1 are autophagy-related genes, and the expression levels thereof increase by 30.07 times and 15.72 times, respectively, after administration of n-butylidenephthalide, while genes related to inflammation including NT5E, STAP1, DEC1, ADAMDEC1 have their expression levels reduced by 12.6, 12.79, 28.35 and 43.55 times, respectively.

[3] = system: Aβ1-42; assay: ELISA of Aβ1-42 in the medium of Ts-21 iPSCs; type: cell-based, human; conditions: 100 μM n-BP
[4] = system: 3xTg AD mice; assay: 18F-FBB PET/CT of amyloid accumulation in the brain of 3xTg mice; type: in vivo
Protocol: N=4 for wild-type and 10 mg/kg donepezil-treated 3xTg mice. N=6 for vehicle-treated 3xTg mice, 60 mg/kg n-BP-treated 3xTg mice, and 120 mg/kg n-BP-treated 3xTg mice. *p-value<0.05, **p-value<0.01 (Student's t-test). […] After 4-12 months, the B6 (C57/BL6) control mice have no AP accumulation (Green color).
FIGS. 8B and 8C show the comparison of VOI-based 18F-florbetaben SUVR(CTX/CB) and SUVR (HIP/CB) between B6 mice, vehicle-treated 3xTg transgenic, and n-BP-treated mice (60 mg/kg) aged 6 and 12 months. n=4 for B6 mice. n=5 for 3xTg mice. SUVR; standard uptake value ratio, M; months, cerebellum: CB.
The accumulation of amyloid in brain tissues can be detected by using an amyloid tracking agent, 18F-Florbetaben (FBB). 18F-FBB positron emission tomography-computed tomography (PET/CT) was used to explore the effect of n-BP treatment on AP accumulation in the hippocampus and cortex. The accumulation of amyloid will appear red in the picture. The quantity and location of AP accumulation in the brains of mice were determined using the tracking reagent 18F-FBB from birth to 4 to 12 months of age.

[5] = system: 3xTg AD mice; assay: Immunostaining with Aβ1-42 antibody of brain sections; type: in vivo
Protocol: FIGS. 8D and 8E show the result of immunostaining with Aβ1-42 antibody to detect amyloid deposition in the brain. Brain sections were selected at −2.2 mm posterior to bregma. Red dot indicated Aβ1-42 plaque accumulation. n=5 for B6 mice and 3xTg-60 mg/kg n-BP group. n=4 for 3xTg vehicle group. n=6 for […]. Scale bars represent 1 mm. *p-value<0.05, **p-value<0.01 (Student's t-test).
It was observed that AP accumulation was absent in the hippocampus of B6 mice but present in that of 3xTg AD mice. […] Specifically, immunostaining was used to detect Aβ1-42 accumulation in the hippocampus of 14-month-old 3xTg AD mice.

[6] = system: 3xTg transgenic mice; assay: Amyloid accumulation in the brain of 3xTg transgenic mice, single and combined treatment (FIG. 11); type: in vivo; conditions: 3xTg mice; 60 mg/kg n-butylidenephthalide, 200 mg/kg vitamin C, alone or combined; vs olive oil control
[7] = system: miR-29b-2-5p and PSEN1 expression in Ts-21 iPSCs; assay: Real-time PCR of miR-29b-2-5p and PSEN1 in Ts-21 iPSCs; type: cell-based, human; conditions: 100 μM n-BP
Source text: FIGS. 6A and 6B show the RT-qPCR analysis result of expression levels of miR-29b-2-5p/miR-9-5p and PSEN1/β-actin with or without […] n-BP. n=3 for each group.

[8] = neurons with Alzheimer's disease symptoms, autophagy-related gene
[9] = neurons with Alzheimer's disease symptoms, inflammation-related gene

CCCC=C1OC(=O)c2ccccc21 [n-BP, n-butylidenephthalide]
Cell survival (biosafety) [1]: Neither butylidenephthalide nor vitamin C has any effect on cell survival
Multiple of change ([2]; gene A 21 P0014752, neurons with Alzheimer's disease symptoms): 17.29
Multiple of change ([2]; gene ADAMDECI, neurons with Alzheimer's disease symptoms): −43.55
Multiple of change ([2]; gene ATP6VOD2, neurons with Alzheimer's disease symptoms): 30.07
Multiple of change ([2]; gene BG182298, neurons with Alzheimer's disease symptoms): −11.75
Multiple of change ([2]; gene CTLA4, neurons with Alzheimer's disease symptoms): 29.78
Multiple of change ([2]; gene DECI, neurons with Alzheimer's disease symptoms): −28.35
Multiple of change ([2]; gene EN ST00000442006, neurons with Alzheimer's disease symptoms): −26.17
Multiple of change ([2]; gene EN ST00000552046, neurons with Alzheimer's disease symptoms): −38.01
Multiple of change ([2]; gene EN ST00000589476, neurons with Alzheimer's disease symptoms): −26.08
Multiple of change ([2]; gene ENST00000427341, neurons with Alzheimer's disease symptoms): 36.49
Multiple of change ([2]; gene ENST00000444130, neurons with Alzheimer's disease symptoms): 21.29
Multiple of change ([2]; gene ENST00000496217, neurons with Alzheimer's disease symptoms): 50.33
Multiple of change ([2]; gene ENST00000503666, neurons with Alzheimer's disease symptoms): 47.83
Multiple of change ([2]; gene ENST00000554445, neurons with Alzheimer's disease symptoms): 27.81
Multiple of change ([2]; gene ENST00000556397, neurons with Alzheimer's disease symptoms): 30.44
Multiple of change ([2]; gene GATA3, neurons with Alzheimer's disease symptoms): 10.76
Multiple of change ([2]; gene ISTI, neurons with Alzheimer's disease symptoms): 15.72
Multiple of change ([2]; gene Inc-DCTD-2, neurons with Alzheimer's disease symptoms): 9.25
Multiple of change ([2]; gene Inc-RP11-766F14.2.1-1, neurons with Alzheimer's disease symptoms): −34.38
Multiple of change ([2]; gene LOC100131532, neurons with Alzheimer's disease symptoms): 47.19
Multiple of change ([2]; gene LOC101060106, neurons with Alzheimer's disease symptoms): 22.27
Multiple of change ([2]; gene LOC101928280, neurons with Alzheimer's disease symptoms): −43.14
Multiple of change ([2]; gene LOC101928885, neurons with Alzheimer's disease symptoms): 21.40
Multiple of change ([2]; gene MBOATI, neurons with Alzheimer's disease symptoms): −4.65
Multiple of change ([2]; gene NCFIB, neurons with Alzheimer's disease symptoms): 34.03
Multiple of change ([2]; gene NT5E, neurons with Alzheimer's disease symptoms): −12.60
Multiple of change ([2]; gene SAP30L-AS1, neurons with Alzheimer's disease symptoms): 5.80
Multiple of change ([2]; gene SH3RF3, neurons with Alzheimer's disease symptoms): 23.23
Multiple of change ([2]; gene SPANXN3, neurons with Alzheimer's disease symptoms): 23.24
Multiple of change ([2]; gene STAPI, neurons with Alzheimer's disease symptoms): −12.79
Multiple of change ([2]; gene TAC4, neurons with Alzheimer's disease symptoms): 12.64
Multiple of change ([2]; gene TDRD5, neurons with Alzheimer's disease symptoms): 31.41
Multiple of change ([2]; gene THC2717143, neurons with Alzheimer's disease symptoms): 29.19
Multiple of change ([2]; gene TMC3-AS1, neurons with Alzheimer's disease symptoms): 6.53
Multiple of change ([2]; gene TSKS, neurons with Alzheimer's disease symptoms): 8.21
Multiple of change ([2]; gene TTTY14, neurons with Alzheimer's disease symptoms): −22.89
Multiple of change ([2]; gene XLOC 12 011873, neurons with Alzheimer's disease symptoms): 6.35
Multiple of change ([2]; gene lnc-AL450307.1-1, neurons with Alzheimer's disease symptoms): −56.05
Multiple of change ([2]; gene lnc-C50rf49-2, neurons with Alzheimer's disease symptoms): 34.90
Multiple of change ([2]; gene lnc-CYP3A43-2, neurons with Alzheimer's disease symptoms): −60.06
Multiple of change ([2]; gene lnc-FZDIO-3, neurons with Alzheimer's disease symptoms): 39.19
Multiple of change ([2]; gene lnc-ILIRI-1, neurons with Alzheimer's disease symptoms): −39.19
Multiple of change ([2]; gene lnc-KCNC2-4, neurons with Alzheimer's disease symptoms): −8.92
Multiple of change ([2]; gene lnc-KCNG3-1, neurons with Alzheimer's disease symptoms): 29.33
Multiple of change ([2]; gene lnc-KHDRBS3-9, neurons with Alzheimer's disease symptoms): 27.98
Multiple of change ([2]; gene lnc-P2RY2-3, neurons with Alzheimer's disease symptoms): −105.51
Multiple of change ([2]; gene lnc-PGPEPIL-I, neurons with Alzheimer's disease symptoms): 35.28
Multiple of change ([2]; gene lnc-PTGES-I, neurons with Alzheimer's disease symptoms): 28.50
Multiple of change ([2]; gene lnc-USP16-7, neurons with Alzheimer's disease symptoms): 31.72
Multiple of change ([2]; gene lnc-ZBTB7C-1, neurons with Alzheimer's disease symptoms): −60.03
Expression of four long noncoding RNA (lncRNA) ([2]; n-BP-treated Ts-21 iPSCs): less than −50 fold
ATP6V0D2 expression level, increase [2, 8]: 30.07 times
IST1 expression level, increase [2, 8]: 15.72 times
ADAMDEC1 expression level, reduced by [2, 9]: 43.55 times
DEC1 expression level, reduced by [2, 9]: 28.35 times
NT5E expression level, reduced by [2, 9]: 12.6 times
STAP1 expression level, reduced by [2, 9]: 12.79 times
Aβ1-42 expression (ELISA, medium) [3]: decrease
Standardized uptake value ratio (SUVR) of FBB in the hippocampus and cortex ([4]; 120 mg n-BP/kg, age 12 months vs age 6 months): significantly lower
Aβ accumulation in hippocampus and cortex (18F-FBB PET/CT) ([4]; 3xTg AD mice, oral n-BP 60 or 120 mg/kg): less AP accumulation; also recorded: low levels of amyloid accumulation
Aβ accumulation in the hippocampus (Aβ1-42 antibody) ([5]; 3xTg AD mice, either dose of n-BP (60 or 120 mg/kg)): significantly decreased
Aβ1-42 accumulation in the brain (immunostaining) ([5]; 14-month-old 3xTg AD mice, 120 mg n-BP/kg, vs vehicle): significantly reduced
Therapeutic effect on accumulation of amyloid in the brain [6]: significantly improved therapeutic effect
Expression levels of other AD-related genes BACE1, PSEN2, APOE3 and APOE4 [7]: without significant difference
PSEN1 expression (real-time PCR) [7]: 58.10%±29.28%
miR-29b-2-5p expression [7]: 12.38 fold
